From US20250017889A1, “INHIBITORS OF P1B-TYPE ATPASES” (THE CURATORS OF THE UNIVERSITY OF MISSOURI, priority 2021, published 2025)

Tests used:
4T1 cells = assay: Sensitivity of 4T1 cells to metal ions, crystal violet assay; assay type: cell-based
Experimental: All metals were added as chloride salts except silver, which was added as silver nitrate (AgNO3).

GFP alone = assay: Microscale thermophoresis (MST), GFP alone as negative control; assay type: binding
Excerpt: Coordinating residues D935 and E798 are predicted to bind copper during transport.

ATP7A(E1030K) = target: T1, ATP7A(E1030K) (Homo sapiens, UniProt Q04656, E1030K); assay: Microscale thermophoresis (MST) binding to GFP-ATP7A(E1030K) mutant; settings: relative to wild type ATP7A
T1 construct: expressed in transfected cells; host or cells: HEK293 (detergent-free lysate)
T1 sequence (Q04656 1-1500 E1030K): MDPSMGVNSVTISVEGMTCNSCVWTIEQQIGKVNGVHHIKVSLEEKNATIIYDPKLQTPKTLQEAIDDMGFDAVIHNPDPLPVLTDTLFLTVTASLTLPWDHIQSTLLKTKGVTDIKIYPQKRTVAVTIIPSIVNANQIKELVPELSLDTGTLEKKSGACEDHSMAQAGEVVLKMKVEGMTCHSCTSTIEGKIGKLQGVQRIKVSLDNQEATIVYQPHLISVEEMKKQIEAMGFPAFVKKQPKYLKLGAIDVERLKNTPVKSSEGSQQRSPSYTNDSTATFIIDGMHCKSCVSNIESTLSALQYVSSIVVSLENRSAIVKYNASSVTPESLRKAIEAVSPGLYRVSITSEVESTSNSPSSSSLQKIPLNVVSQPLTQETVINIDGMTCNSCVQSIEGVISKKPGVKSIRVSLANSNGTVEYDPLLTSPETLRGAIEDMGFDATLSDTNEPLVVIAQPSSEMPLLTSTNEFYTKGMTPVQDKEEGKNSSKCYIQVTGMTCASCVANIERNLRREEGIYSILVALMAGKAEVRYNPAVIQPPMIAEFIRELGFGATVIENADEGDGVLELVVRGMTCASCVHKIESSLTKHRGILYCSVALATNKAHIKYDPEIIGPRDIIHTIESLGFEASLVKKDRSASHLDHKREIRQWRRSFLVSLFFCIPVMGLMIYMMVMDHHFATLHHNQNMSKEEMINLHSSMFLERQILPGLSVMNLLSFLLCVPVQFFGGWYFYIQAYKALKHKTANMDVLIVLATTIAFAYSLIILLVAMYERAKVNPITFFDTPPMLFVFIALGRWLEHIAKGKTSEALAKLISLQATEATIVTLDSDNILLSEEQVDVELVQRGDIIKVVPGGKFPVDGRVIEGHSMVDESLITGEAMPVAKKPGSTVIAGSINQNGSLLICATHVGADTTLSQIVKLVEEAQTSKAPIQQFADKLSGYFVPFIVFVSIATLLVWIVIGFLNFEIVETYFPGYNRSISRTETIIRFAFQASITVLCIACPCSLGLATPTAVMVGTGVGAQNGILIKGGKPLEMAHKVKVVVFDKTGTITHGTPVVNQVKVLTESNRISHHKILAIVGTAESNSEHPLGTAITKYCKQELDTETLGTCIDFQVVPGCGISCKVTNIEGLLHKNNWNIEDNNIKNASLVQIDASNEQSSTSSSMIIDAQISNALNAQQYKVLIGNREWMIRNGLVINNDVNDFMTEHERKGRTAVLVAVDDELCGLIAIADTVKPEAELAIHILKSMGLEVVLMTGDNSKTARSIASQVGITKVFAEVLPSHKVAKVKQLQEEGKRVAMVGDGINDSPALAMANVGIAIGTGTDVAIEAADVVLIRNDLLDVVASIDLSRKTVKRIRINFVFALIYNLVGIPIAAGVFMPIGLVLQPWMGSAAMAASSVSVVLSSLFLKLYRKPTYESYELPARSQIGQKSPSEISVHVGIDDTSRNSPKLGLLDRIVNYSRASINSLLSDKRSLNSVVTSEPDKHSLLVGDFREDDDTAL
Excerpt: 7A is a model of MKV3-coordinating residues in ATP7A which are identical to those of ATP7B except that the negatively charged glutamate at position 1030 (E1030) of ATP7A corresponds to a positively lysine at position 1013 (K1013) in ATP7B. […] To confirm this the E1030 residue in ATP7A was mutated to a lysine to generate an ATP7A(E1030K) mutant protein.

[1] = test system: ATP7A trafficking in 4T1 breast cancer cells; assay: Copper-stimulated trafficking of ATP7A by immunofluorescence microscopy; assay type: cell-based; settings: 10 μM, 4 h, 4T1 cells
Experimental: Since the copper-stimulated trafficking of ATP7A is dependent on its transport activity, an inhibitor of ATP7A would be expected to block copper-stimulated trafficking of ATP7A. 4T1 breast cancer cells were pre-grown on glass coverslips for 16 hours in media containing 10 μM of the copper chelator bathocuproine disulfonate to create a baseline of low copper levels. […] After 4 h, the cells were fixed, permeabilized and stained with anti-ATP7A antibodies (green). Nuclei were labeled with DAPI stain. In vehicle treated control cells, the ATP7A protein was strongly detected in the perinuclear region (13A), which is consistent with its known location in the trans-Golgi compartment. As expected, the copper treatment stimulated ATP7A trafficking from the perinuclear region into cytoplasmic vesicles (13B).

N#CC(C(=O)Nc1cccc(C(F)(F)F)c1)C(=S)Nc1ccccc1Cl (centres unmarked) [MKV3]
sensitivity to copper and silver (4T1 cells; 10 μM MKV3, 4T1 cells): conferred sensitivity to as little as 5 μM copper and silver
sensitivity to other metals (4T1 cells; 10 μM MKV3, other metals up to 50 μM): did not affect the sensitivity
binding to GFP alone (GFP alone): not to GFP alone
increase of binding affinity by E1030K mutation in ATP7A (ATP7A(E1030K)): approximately 2.7 fold
copper-stimulated trafficking of ATP7A [1]: blocked
